Active and inactive are the calls of the source. The calls are words filed in the database; no cut-off is given here.
Key:
HeLa [1] = assay: Antiproliferative activity against human HeLa cells assessed as inhibition of cell growth incubated for 72 hrs by MTT assay; type: functional, cell-based
[2] = Induction of autophagic flux in human HeLa cells overexpressing EGFP-LC3 assessed as fold increase in GFP-tagged LC3-II protein expression at 10 uM incubated for 24 hrs by Western blotting analysis (reference value: 1); type: functional
HeLa [3] = assay: Induction of autophagic flux in human HeLa cells overexpressing EGFP-LC3 assessed as increase in GFP-tagged LC3-II protein expression at 10 uM incubated for 24 hrs by Western blotting analysis; type: functional, cell-based
[4] = Induction of autophagic flux in human HeLa cells overexpressing EGFP-LC3 assessed as fold increase in GFP-tagged LC3-II protein expression at 3 uM incubated for 24 hrs by Western blotting analysis (reference value: 1); type: functional
HeLa [5] = assay: Induction of autophagy in human HeLa cells overexpressing EGFP-LC3 assessed as increase in LC3-II puncta formation at 10 uM incubated for 24 hrs in presence of chloroquine by Hoechst staining based immunofluorescence analysis; type: functional, cell-based
HeLa [6] = assay: Induction of autophagy in human HeLa cells overexpressing EGFP-LC3 assessed as increase in LC3-II puncta formation at 10 uM incubated for 24 hrs in presence of rapamycin by Hoechst staining based immunofluorescence analysis; type: functional, cell-based
Lysosomal membrane [7] = assay: Induction of lysosomal membrane permeabilization in human HeLa cells assessed as increase fluorescence intensity at 10 uM incubated for 24 hrs in presence of chloroquine by LysoTracker Red DND-99 dye based confocal laser microscopic analysis; type: subcellular
Lysosomal membrane [8] = assay: Induction of lysosomal membrane permeabilization in human HeLa cells assessed as increase fluorescence intensity at 10 uM incubated for 24 hrs in presence of bafilomycin A1 by LysoTracker Red DND-99 dye based confocal laser microscopic analysis; type: subcellular
Lysosomal membrane [9] = assay: Disruption of lysosomal membrane in human HT-1080 cells assessed as downregulation of cathepsin B expression at 20 uM by Western blotting analysis; type: subcellular
Lysosomal membrane [10] = assay: Disruption of lysosomal membrane in human HT-1080 cells assessed as downregulation of cathepsin B expression incubated for 24 hrs by Western blotting analysis; type: subcellular
HT-1080 [11] = assay: Induction of autophagic flux in human HT-1080 cells assessed as increase in LC3-II protein expression at 10 uM incubated for 24 hrs by Western blotting analysis; type: functional, cell-based
HT-1080 [12] = assay: Antiproliferative activity against human HT-1080 cells assessed as inhibition of cell growth incubated for 72 hrs by MTT assay; type: functional, cell-based
[13] = Induction of autophagic flux in human HeLa cells overexpressing EGFP-LC3 assessed as fold increase in GFP-tagged LC3-II protein expression at 1 uM incubated for 24 hrs by Western blotting analysis (reference value: 1); type: functional
Lysosomal membrane [14] = assay: Disruption of lysosomal membrane in human HT-1080 cells assessed as downregulation of cathepsin B expression at 5 uM incubated for 12 hrs by Western blotting analysis; type: subcellular
Lysosomal membrane [15] = assay: Disruption of lysosomal membrane in human HT-1080 cells assessed as downregulation of cathepsin B expression at 20 uM incubated for 12 hrs by Western blotting analysis; type: subcellular

In the case of `O=C(C[C@H]1CN2C3CC(OC(=O)Cc4ccccc4)C1C2CN(Cc1ccccc1)C3)NCc1ccccc1` (some centres not stated), the IC50 (HeLa [1]) is reported as 14.8 µM and the “fold change (FC)” value [2] is reported as 2.

For `CCCCC(=O)OC1CC2CN(Cc3ccccc3)CC3C1[C@@H](CC(=O)NCc1ccccc1)CN23` (some centres not stated), the IC50 (HeLa [1]) was 6.7 µM and the “fold change (FC)” value [2] was 5.4.

For `CC(C)CNC(=O)C[C@H]1CN2C3CC(OC(=O)CC(C)C)C1C2CN(Cc1ccccc1)C3` (some centres not stated), the IC50 (HeLa [1]) was 15.7 µM and the “fold change (FC)” value [2] was 1.7.

With `CC(C)C(=O)OC1CC2CN(Cc3ccccc3)CC3C1[C@@H](CC(=O)NCc1ccccc1)CN23` (some centres not stated) the IC50 (HeLa [1]) was 19.3 µM and the “fold change (FC)” value [2] was 1.9.

For `CCOC(=O)C[C@H]1CN2C3CC(=O)C1C2CN(Cc1ccccc1)C3` (some centres not stated), the IC50 (HeLa [1]) was over 100 µM and the Activity (HeLa [3]) was “inactive”.

For `CCCCCCNC(=O)/C=C1/CN2C3CNCC2C1C(OC(=O)C(C)C)C3` (configuration not stated), the IC50 (HeLa [1]) was over 100 µM and the “fold change (FC)” value [2] was 1.3.

With `O=C(C[C@H]1CN2C3CC(O)C1C2CN(Cc1ccccc1)C3)NCc1ccccc1` (some centres not stated) the IC50 (HeLa [1]) was over 100 µM and the Activity (HeLa [3]) was “inactive”.

In the case of `CC(C)CNC(=O)C[C@H]1CN2C3CC(OC(=O)Cc4ccccc4)C1C2CN(Cc1ccccc1)C3` (some centres not stated), the IC50 (HeLa [1]) is reported as 47.9 µM and the “fold change (FC)” value [2] is reported as 1.6.

With `CCCCCCNC(=O)C[C@H]1CN2C3CC(OC(=O)C(C)C)C1C2CN(Cc1ccccc1)C3` (some centres not stated) the IC50 (HeLa [1]) was 10.1 µM, the “fold change (FC)” value [2] was 2.4 and the “fold change (FC)” value [4] was 2.6. The Activity (HeLa [5]) was “Not active; Compared To Compound Alone Or Chloroquine Alone Treatment; Mechanism Of Action Similar To Chloroquine”, the Activity (HeLa [6]) was “Active; Compared To Compound Alone Or Rapamycin Alone Treatment” and the Activity (Lysosomal membrane [7]) was “Active; Compound Observed To Enlarge Lysosome And Increase Lysosomal Ph Similar To Chloroquine”. For the same molecule, the Activity (Lysosomal membrane [8]) was “inactive”, the Activity (Lysosomal membrane [9]) was “Time-dependent-effect” and the Activity (Lysosomal membrane [10]) was “Dose-dependent-effect”. The Activity (HT-1080 [11]) was “Active”, the Activity (HT-1080 [12]) was “Active” and the “fold change (FC)” value [13] was 1.3.

With `O=C(C[C@H]1CN2C3CC(OC(=O)C4CC4)C1C2CN(Cc1ccccc1)C3)NCc1ccccc1` (some centres not stated) the IC50 (HeLa [1]) was 18 µM and the “fold change (FC)” value [2] was 5.7.

In the case of `CC(C)CNC(=O)C[C@H]1CN2C3CC(OC(=O)Cc4ccccc4)C1C2CN(CC(C)C)C3` (some centres not stated), the IC50 (HeLa [1]) is reported as over 100 µM and the “fold change (FC)” value [2] is reported as 1.3.

With `CO/C1=C\C(C)=C\[C@@H](C)[C@@H](O)[C@@H](C)C/C(C)=C/C=C/[C@H](OC)[C@@H]([C@@H](C)[C@@H](O)[C@H](C)[C@@]2(O)C[C@@H](O)[C@H](C)[C@@H](C(C)C)O2)OC1=O` the Activity (Lysosomal membrane [14]) was “Active”.

For `CCOC(=O)C[C@H]1CN2C3CNCC2C1C(=O)C3` (some centres not stated), the IC50 (HeLa [1]) was over 100 µM and the Activity (HeLa [3]) was “inactive”.

In the case of `CC(C)CC(=O)OC1CC2CN(CC(C)C)CC3C1[C@@H](CC(=O)NCc1ccccc1)CN23` (some centres not stated), the IC50 (HeLa [1]) is reported as 34.2 µM and the “fold change (FC)” value [2] is reported as 2.5.

With `O=C(C[C@H]1CN2C3CC(OC(=O)C4CCCCC4)C1C2CN(Cc1ccccc1)C3)NCc1ccccc1` (some centres not stated) the IC50 (HeLa [1]) was 5.2 µM and the “fold change (FC)” value [2] was 3.7.

For `CCCCCCNC(=O)/C=C1/CN2C3CC(OC(=O)C(C)C)C1C2CN(C)C3` (configuration not stated), the IC50 (HeLa [1]) was over 100 µM and the “fold change (FC)” value [2] was 2.1.

In the case of `CCCCCCCCCCCCCCCC(=O)OC1CC2CN(Cc3ccccc3)CC3C1[C@@H](CC(=O)NCc1ccccc1)CN23` (some centres not stated), the IC50 (HeLa [1]) is reported as 5.5 µM and the “fold change (FC)” value [2] is reported as 1.1.

In the case of `CC(C)CNC(=O)C[C@H]1CN2C3CC(OC(=O)CC(C)C)C1C2CN(CC(C)C)C3` (some centres not stated), the IC50 (HeLa [1]) is reported as over 100 µM and the “fold change (FC)” value [2] is reported as 1.2.

With `O=C(C[C@H]1CN2C3CC(=O)C1C2CN(Cc1ccccc1)C3)NCc1ccccc1` (some centres not stated) the IC50 (HeLa [1]) was over 100 µM and the Activity (HeLa [3]) was “inactive”.

With `CC(C)CCC(=O)OC1CC2CN(Cc3ccccc3)CC3C1[C@@H](CC(=O)NCc1ccccc1)CN23` (some centres not stated) the IC50 (HeLa [1]) was 6.2 µM and the “fold change (FC)” value [2] was 3.7.

For `CC(C)NC(=O)C[C@H]1CN2C3CC(OC(=O)C(C)C)C1C2CN(Cc1ccccc1)C3` (some centres not stated), the IC50 (HeLa [1]) was over 100 µM and the “fold change (FC)” value [2] was 1.8.

For `CC(C)C(=O)OC1CC2CN(CC3CCCCC3)CC3C1[C@@H](CC(=O)NCC1CCCCC1)CN23` (some centres not stated), the IC50 (HeLa [1]) was 6 µM, the “fold change (FC)” value [2] was 2.9 and the “fold change (FC)” value [4] was 3.7. For the same molecule, the “fold change (FC)” value [13] was 1.4.

For `CC(C)C(=O)OC1CC2CN(Cc3ccccc3)CC3C1[C@@H](CC(=O)NCC1CCCCC1)CN23` (some centres not stated), the IC50 (HeLa [1]) was 15.5 µM, the “fold change (FC)” value [2] was 2.4 and the “fold change (FC)” value [4] was 2.1. For the same molecule, the “fold change (FC)” value [13] was 2.

With `CC(C)(C)C(=O)OC1CC2CN(Cc3ccccc3)CC3C1[C@@H](CC(=O)NCc1ccccc1)CN23` (some centres not stated) the IC50 (HeLa [1]) was 5.6 µM and the “fold change (FC)” value [2] was 3.8.

For `CCCCCCNC(=O)/C=C1/CN2C3CC(OC(=O)C(C)C)C1C2CN(Cc1ccccc1)C3` (configuration not stated), the IC50 (HeLa [1]) was 12.5 µM and the “fold change (FC)” value [2] was 3.

With `CC(C)CC(=O)OC1CC2CN(Cc3ccccc3)CC3C1[C@@H](CC(=O)NCc1ccccc1)CN23` (some centres not stated) the IC50 (HeLa [1]) was 10 µM and the “fold change (FC)” value [2] was 3.

In the case of `CCN(CC)CCCC(C)Nc1ccnc2cc(Cl)ccc12` (configuration not stated) [CHLOROQUINE], the IC50 (HeLa [1]) is reported as 43.1 µM, the “fold change (FC)” value [2] is reported as 2 and the Activity (Lysosomal membrane [15]) is reported as “Active”.

With `CCCCCCNC(=O)/C=C1/CN2C3CC(OC(=O)C(C)C)C1C2CN(C(=O)c1ccccc1)C3` (configuration not stated) the IC50 (HeLa [1]) was over 100 µM and the “fold change (FC)” value [2] was 1.3.

For `CC(=O)OC1CC2CN(Cc3ccccc3)CC3C1[C@@H](CC(=O)NCc1ccccc1)CN23` (some centres not stated), the IC50 (HeLa [1]) was 78.4 µM and the “fold change (FC)” value [2] was 3.5.

For `CCCCCCNC(=O)/C=C1/CN2C3CC(OC(=O)C(C)C)C1C2CN(C(=O)OCc1ccccc1)C3` (configuration not stated), the IC50 (HeLa [1]) was 23.1 µM and the “fold change (FC)” value [2] was 1.3.

In the case of `CC(C)CN1CC2CC(OC(=O)Cc3ccccc3)C3C(C1)N2C[C@@H]3CC(=O)NCc1ccccc1` (some centres not stated), the IC50 (HeLa [1]) is reported as 94.2 µM and the “fold change (FC)” value [2] is reported as 1.8.

With `C#CCCCC(=O)OC1CC2CN(Cc3ccccc3)CC3C1[C@@H](CC(=O)NCc1ccccc1)CN23` (some centres not stated) the IC50 (HeLa [1]) was 15.7 µM and the “fold change (FC)” value [2] was 4.3.

For `O=C(C[C@H]1CN2C3CC(OC(=O)C4CCCCCC4)C1C2CN(Cc1ccccc1)C3)NCc1ccccc1` (some centres not stated), the IC50 (HeLa [1]) was 5.1 µM and the “fold change (FC)” value [2] was 2.2.

With `CNC(=O)C[C@H]1CN2C3CC(OC(=O)C(C)C)C1C2CN(Cc1ccccc1)C3` (some centres not stated) the IC50 (HeLa [1]) was over 100 µM and the “fold change (FC)” value [2] was 1.9.

From ChEMBL document CHEMBL6092165, “Discovery of sp3-rich diazatricycloundecanes as lysosomotropic autophagy inhibitors” (Eur J Med Chem, 2024)
